Experimental data: US20110110890A1, “Novel Inhibitors of Hepatitis C Virus Replication” (INTERMUNE, INC., priority 2009, published 2011)

Assays:
[1] = system: HCV Replicon; assay: HCV Replicon inhibition; format: cell-based; details: Hepatitis C virus
[2] = molecular target: T1, HCV NS5B polymerase (Hepatitis C virus genotype 1a, UniProt P27958); assay: Replizyme HCV heterotemplate radioactive RNA-dependent RNA-polymerase (RdRp) assay; format: biochemical; details: pre-incubated 30 minutes at 37° C., reaction 90 minutes at 37° C.; read-out: HCV NS5B inhibition EC50
T1 construct: pre-incubated with the RNA template and NS5B polymerase protein; purchased Replizyme
Method: The compounds were tested in the Replizyme HCV heterotemplate radioactive RNA-dependent RNA-polymerase (RdRp) assay. The test compounds were pre-incubated with the RNA template and NS5B polymerase protein at 37° C. for 30 minutes. The RdRp reaction was initiated with the addition of the NTPs to the buffer-NS5B-compound mix, and was allowed to proceed for 90 minutes at 37° C. Control reactions included: no enzyme, 5% DMSO (test compound solvent), no compound/solvent, Cordycepin-TP and HCV-796 (IC50 values used as a reference inhibition). Radioactive products were collected by applying the stopped reaction to DE-81 paper, air dried prior to washing with buffer comprising NaH2PO4 and sodium pyrophosphate to remove unincorporated ^32P-GTP in the NTP mix, and rinsed with dH2O followed by 100% ethanol. The DE-81 paper was air dried, squares cut out and placed in scintillation tubes for counting.

T1 sequence (P27958 2421-3011): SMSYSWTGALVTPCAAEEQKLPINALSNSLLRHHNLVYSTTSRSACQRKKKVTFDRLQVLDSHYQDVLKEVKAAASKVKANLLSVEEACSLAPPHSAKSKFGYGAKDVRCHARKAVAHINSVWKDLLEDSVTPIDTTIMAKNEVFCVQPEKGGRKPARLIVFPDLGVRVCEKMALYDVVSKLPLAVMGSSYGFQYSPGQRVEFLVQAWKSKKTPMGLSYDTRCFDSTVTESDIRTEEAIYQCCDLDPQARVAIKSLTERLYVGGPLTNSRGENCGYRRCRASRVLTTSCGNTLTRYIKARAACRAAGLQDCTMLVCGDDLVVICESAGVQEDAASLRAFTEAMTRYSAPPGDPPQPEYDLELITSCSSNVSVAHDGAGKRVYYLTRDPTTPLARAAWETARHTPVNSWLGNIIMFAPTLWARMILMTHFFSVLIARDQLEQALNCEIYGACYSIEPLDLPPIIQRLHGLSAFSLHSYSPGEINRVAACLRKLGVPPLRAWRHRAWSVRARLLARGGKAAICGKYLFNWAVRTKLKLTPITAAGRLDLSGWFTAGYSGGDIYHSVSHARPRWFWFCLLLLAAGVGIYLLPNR

Compound	EC50 [1]	EC50 [2]
CS(=O)(=O)Nc1ccc2c(c1)S(=O)(=O)N=C(c1c(O)n3cc(F)ccc3c(Cc3cc(F)cc(F)c3)c1=O)N2 [Compound 101]	< 100 nM	< 100 nM
CS(=O)(=O)Nc1ccc2c(c1)S(=O)(=O)N=C(c1c(O)n3cc(F)ccc3c(Cc3ccc(F)c(F)c3)c1=O)N2 [Compound 102S]	< 100 nM	< 100 nM
CS(=O)(=O)Nc1ccc2c(c1)S(=O)(=O)N=C(c1c(O)n3cc(F)ccc3c(Cc3ccc(F)cc3)c1=O)N2 [Compound 103S]	< 100 nM	< 100 nM
CC(C)(C)CCc1c(=O)c(C2=NS(=O)(=O)c3cc(NS(C)(=O)=O)ccc3N2)c(O)n2cc(F)ccc12 [Compound 104S]	< 100 nM	< 100 nM
CS(=O)(=O)Nc1ccc2c(c1)S(=O)(=O)N=C(c1c(O)n3ccccc3c(Cc3cc(F)cc(F)c3)c1=O)N2 [Compound 105S]	< 100 nM	< 100 nM
